{"source": "patent US20180057462A1", "about": "“Substituted 2-difluoromethyl-nicotin(thio)carboxanilide derivatives and their use as fungicides” (BAYER CROPSCIENCE AKTIENGESELLSCHAFT, priority 2015, published 2018)", "test": "LogP by HPLC on reversed phase columns (EEC directive 79/831 Annex V.A8), method [a]", "type": "physicochemical", "details": "LC-UV, acidic range, 0.1% formic acid in water and acetonitrile as eluent (linear gradient 10% to 95% acetonitrile)"}
{"smiles": "Cc1c(NC(=O)c2cccnc2C(F)F)cccc1OCCc1ccc(Cl)cc1", "note": "[Example 66]", "values": [{"measurement": "LogP[a]", "result": 3.68}]}
{"smiles": "Cc1c(NC(=O)c2cccnc2C(F)F)cccc1OC(C)Cc1ccc(Cl)cc1", "note": "(centres unmarked) [Example 67]", "values": [{"measurement": "LogP[a]", "result": 3.90}]}
{"smiles": "Cc1c(NC(=O)c2cccnc2C(F)F)cccc1OC(C)Cc1cccc(Cl)c1", "note": "(centres unmarked) [Example 68]", "values": [{"measurement": "LogP[a]", "result": 3.85}]}
{"smiles": "Cc1c(NC(=O)c2cccnc2C(F)F)cccc1OC(C)Cc1ccccc1Cl", "note": "(centres unmarked) [Example 69]", "values": [{"measurement": "LogP[a]", "result": 3.90}]}
{"smiles": "Cc1c(NC(=O)c2cccnc2C(F)F)cccc1OC(C)CSc1ccccc1", "note": "(centres unmarked) [Example 70]", "values": [{"measurement": "LogP[a]", "result": 3.65}]}
{"smiles": "Cc1c(NC(=O)c2cccnc2C(F)F)cccc1OCc1cccs1", "note": "[Example 71]", "values": [{"measurement": "LogP[a]", "result": 2.82}]}
{"smiles": "Cc1c(NC(=O)c2cccnc2C(F)F)cccc1OC(C)Cc1cccs1", "note": "(centres unmarked) [Example 72]", "values": [{"measurement": "LogP[a]", "result": 3.37}]}
{"smiles": "Cc1c(NC(=O)c2cccnc2C(F)F)cccc1OCc1ccc(C(F)(F)F)cc1", "note": "[Example 73]", "values": [{"measurement": "LogP[a]", "result": 3.57}]}
{"smiles": "Cc1c(CCC(C)(C)C)cccc1NC(=O)c1cccnc1C(F)F", "note": "[Example 74]", "values": [{"measurement": "LogP[a]", "result": 3.92}]}
{"smiles": "Cc1c(NC(=O)c2cccnc2C(F)F)cccc1OC1CCCC1", "note": "[Example 75]", "values": [{"measurement": "LogP[a]", "result": 3.21}]}
{"smiles": "Cc1c(NC(=O)c2cccnc2C(F)F)cccc1OCC=C(Cl)Cl", "note": "[Example 76]", "values": [{"measurement": "LogP[a]", "result": 3.21}]}
{"smiles": "Cc1c(NC(=O)c2cccnc2C(F)F)cccc1OCC1CCCCC1", "note": "[Example 77]", "values": [{"measurement": "LogP[a]", "result": 4.14}]}
{"smiles": "Cc1c(NC(=O)c2cccnc2C(F)F)cccc1OCCC(C)(C)C", "note": "[Example 78]", "values": [{"measurement": "LogP[a]", "result": 3.85}]}
{"smiles": "CCCC(C)Oc1cccc(NC(=O)c2cccnc2C(F)F)c1C", "note": "(centres unmarked) [Example 79, 2-(difluoromethyl)-N-[2-methyl-3-(pentan-2-yloxy)phenyl]nicotinamide]", "values": [{"measurement": "chromatographic logP", "setting": "reversed phase HPLC column", "result": 3.48}]}
{"smiles": "Cc1c(NC(=O)c2cccnc2C(F)F)cccc1C1CCCCO1", "note": "(centres unmarked) [Example 80]", "values": [{"measurement": "LogP[a]", "result": 2.53}]}
{"smiles": "Cc1c(NC(=O)c2cccnc2C(F)F)cccc1C1CC2CCC1C2", "note": "(centres unmarked) [Example 81]", "values": [{"measurement": "LogP[a]", "result": 3.80}]}
{"smiles": "Cc1c(NC(=O)c2cccnc2C(F)F)cccc1C1CCCO1", "note": "(centres unmarked) [Example 82]", "values": [{"measurement": "LogP[a]", "result": 2.02}]}
{"smiles": "CCCC(CC)Oc1cccc(NC(=O)c2cccnc2C(F)F)c1C", "note": "(centres unmarked) [Example 83]", "values": [{"measurement": "LogP[a]", "result": 3.94}]}
{"smiles": "Cc1c(NC(=O)c2cccnc2C(F)F)cccc1OC(C)CC(C)(C)C", "note": "(centres unmarked) [Example 84]", "values": [{"measurement": "LogP[a]", "result": 4.21}]}
{"smiles": "Cc1c(NC(=O)c2cccnc2C(F)F)cccc1OC(C)C1CCCC1", "note": "(centres unmarked) [Example 85]", "values": [{"measurement": "LogP[a]", "result": 4.06}]}
{"smiles": "CCCCC(C)Oc1cccc(NC(=O)c2cccnc2C(F)F)c1C", "note": "(centres unmarked) [Example 86]", "values": [{"measurement": "LogP[a]", "result": 3.94}]}
{"smiles": "Cc1c(NC(=O)c2cccnc2C(F)F)cccc1OC(C)CCC(C)C", "note": "(centres unmarked) [Example 87]", "values": [{"measurement": "LogP[a]", "result": 4.26}]}
{"smiles": "Cc1c(NC(=O)c2cccnc2C(F)F)cccc1OC(C)Cc1ccccc1", "note": "(centres unmarked) [Example 88]", "values": [{"measurement": "LogP[a]", "result": 3.62}]}
{"smiles": "Cc1c(NC(=O)c2cccnc2C(F)F)cccc1OC(C)c1ccccc1", "note": "(centres unmarked) [Example 89]", "values": [{"measurement": "LogP[a]", "result": 3.33}]}
{"smiles": "Cc1c(COC(C)C)cccc1NC(=O)c1cccnc1C(F)F", "note": "[Example 90]", "values": [{"measurement": "LogP[a]", "result": 2.43}]}
{"smiles": "O=C(Nc1cccc(OC2CCCC2)c1C(F)(F)F)c1cccnc1C(F)F", "note": "[Example 91]", "values": [{"measurement": "LogP[a]", "result": 3.33}]}
{"smiles": "CCC(CC)Oc1cccc(NC(=O)c2cccnc2C(F)F)c1C(F)(F)F", "note": "[Example 92]", "values": [{"measurement": "LogP[a]", "result": 3.55}]}
{"smiles": "CCCC(CC)Oc1cccc(NC(=O)c2cccnc2C(F)F)c1C(F)(F)F", "note": "(centres unmarked) [Example 93]", "values": [{"measurement": "LogP[a]", "result": 3.92}]}
{"smiles": "CCC(C)Oc1cccc(NC(=O)c2cccnc2C(F)F)c1C(F)(F)F", "note": "(centres unmarked) [Example 94]", "values": [{"measurement": "LogP[a]", "result": 3.17}]}
{"smiles": "CCC(C)Oc1cccc(NC(=O)c2cc(C)cnc2C(F)F)c1C(F)(F)F", "note": "(centres unmarked) [Example 95]", "values": [{"measurement": "LogP[a]", "result": 3.44}]}
{"smiles": "CCC(C)Oc1cccc(NC(=O)c2ccc(Cl)nc2C(F)F)c1C(F)(F)F", "note": "(centres unmarked) [Example 96]", "values": [{"measurement": "LogP[a]", "result": 3.83}]}
{"smiles": "CC(C)Oc1cccc(NC(=O)c2ccc(Cl)nc2C(F)F)c1C(F)(F)F", "note": "[Example 97]", "values": [{"measurement": "LogP[a]", "result": 3.46}]}
{"smiles": "Cc1cnc(C(F)F)c(C(=O)Nc2cccc(OC(C)C)c2C(F)(F)F)c1", "note": "[Example 98]", "values": [{"measurement": "LogP[a]", "result": 3.04}]}
{"smiles": "CC(C)Oc1cccc(NC(=O)c2cccnc2C(F)F)c1C(F)(F)F", "note": "[Example 99]", "values": [{"measurement": "LogP[a]", "result": 2.80}]}
{"smiles": "O=C(Nc1cccc(OCc2ccccc2)c1C(F)(F)F)c1cccnc1C(F)F", "note": "[Example 100]", "values": [{"measurement": "LogP[a]", "result": 3.13}]}
